# Assay results as given in PubChem BioAssay AID977606 (Broad Institute, 2014).
# Calls of active or inactive are those of the source. No rule for the calls is given here.
# Tested on: INS-1E Gaussia luciferase insulin secretion, no glucose, luminescence
# Assay: glucose-independent GLuc insulin release activation – cell-based, INS-1E, Gaussia luciferase, luminescence, cherry-pick, counter-screen for glucose-dependent insulin secretion activators, dose response (AID 977606)
row,SMILES,AC40
1,CCOC(=O)c1ccc(Nc2ncnc3ccc(C)cc23)cc1,11.5 µM
2,O=C(Nc1cccc(Cl)c1)Nc1nnc(CSCCOc2ccc(Cl)cc2)s1,3.41 µM
3,Nn1c(-c2ccccc2)cc(-c2ccccc2)cc1=O,> 35 µM (inactive)
4,CCc1c(C)sc(NC(=O)c2cc(-c3ccc(OC)c(OC)c3)on2)c1C#N,6.43 µM
5,CC(C)CC(NC(=O)c1ccc(Cl)cc1)C(=O)OCC(=O)c1ccc2c(c1)NC(=O)CO2 (stereo not drawn),2.04 µM
6,CCC(=O)Nc1ccc(NC(=S)NC(=O)c2oc3ccccc3c2C)cc1,3.36 µM
7,CCCN1Cc2cccc(C(=O)NCc3ccccc3)c2C1=O,> 35 µM (inactive)
8,O=C(CCN1CCOCC1)c1ccc2c(c1)OCCO2,33.2 µM
9,Cc1ccc(-c2cc(C(=O)NCc3cnn(C)c3)c3cc(Br)ccc3n2)cc1,1.24 µM
10,CCOc1ccc(-c2nnn(CC(=O)Nc3ccccc3OC)n2)cc1OCC,7.27 µM
11,CCCCCCn1c(N(CC)CC)nc2c1c(=O)[nH]c(=O)n2C,30.8 µM
12,COc1ccc(C)cc1NCc1cc(=O)oc2cc(-c3ccccc3)c(O)cc12,23.6 µM
13,CCOC(=O)c1c(-c2ccc(-c3ccccc3)cc2)csc1NC(=O)CNCCN(C)C,5.75 µM
14,NC(N)=N/N=C/c1ccc(OCc2ccccc2)c(OCc2ccccc2)c1,6.87 µM
15,COC(=O)c1ccc2c(=O)[nH]c(CSc3nc(-c4ccc(F)cc4)cs3)nc2c1,4.39 µM
16,CCOC(=O)Cn1c(=NC(=O)c2nc3ccccc3s2)sc2cc(S(N)(=O)=O)ccc21,18.3 µM
17,NCCCNC(=S)NCCCN(Cc1ccc(Cl)cc1)c1ccc(Br)cn1,23.4 µM
18,C[C@H](CO)N1C[C@H](C)[C@@H](CN(C)C(=O)Cc2ccccn2)Oc2cc(C#C[C@@H](C)O)ccc2S1(=O)=O,18 µM
19,C=CCNc1nc(NCc2ccco2)nc(OCC)n1,> 35 µM (inactive)
20,COC(=O)c1ccc2c(c1)NC(=O)C(N(CC(C)C)CC(C)C)S2 (stereo not drawn),2.51 µM
21,O=C(COc1ccccc1)Nc1sc2c(c1C(=O)NCc1cccnc1)CCCC2,6.97 µM
22,NC(=O)c1ccc2nc(-c3ccccc3)c(-c3ccccc3)nc2c1,19.8 µM

row,SMILES,AC40
1,CCOc1cc(N2CCOCC2)c(OCC)cc1NC(=O)COC(=O)c1cc2ccccc2cc1O,4.74 µM
2,Cc1cccc(C(C)C)c1NC(=O)COC(=O)c1cccc(S(=O)(=O)N2CCc3ccccc3C2)c1,6.65 µM
3,Cc1ccc(-n2sc3cc(F)ccc3c2=O)c(C)c1,0.883 µM
4,O=C(Cn1nnc(-c2ccccc2)n1)N=Nc1c(O)[nH]c2ccccc12,8.24 µM
5,OC(c1ccccc1)(c1nc(-c2cccc(C(F)(F)F)c2)cs1)C(F)(F)F (stereo not drawn),10.1 µM
6,COc1ccccc1C(=O)NC(=S)Nc1ccc2[nH]c(=O)[nH]c2c1,8.24 µM
7,CCCCc1nc(NCCN)c(C#N)c2c1CSC(C)(C)C2,11.6 µM
8,CC1(C(=O)NCC2CCCCC2)CCN1CCc1ccccc1 (stereo not drawn),17.9 µM
9,O=C(Nc1ccccc1)c1nnsc1S(=O)(=O)c1ccc(Cl)cc1,0.403 µM
10,O=C(c1cccs1)c1coc2ccc(O)c(CN3CCOCC3)c12,> 35 µM (inactive)
11,Cc1cc(C)c2nc(N(CCCN(C)C)C(=O)c3ccc4c(c3)CCCC4)sc2c1,7.77 µM
12,Cn1c(=O)oc2cc(S(=O)(=O)N3CCC(C(=O)Nc4ccc(OC(F)(F)F)cc4)CC3)ccc21,5.04 µM
13,O=C(N/N=C/c1ccco1)c1cc(-c2ccc3ccccc3c2)n[nH]1,3.97 µM
14,CCC(=O)Nc1ccc(Cl)c(NC(=S)NC(=O)COc2ccc(Cl)cc2)c1,5.38 µM
15,Cc1ccc(C)c(OCC(=O)N/N=C/c2c(C)nn(-c3ccccc3)c2Cl)c1C,1.63 µM
16,COc1ccc(Br)cc1C(=O)Nc1cccc(C)c1,9.88 µM
17,CS(=O)(=O)N1CCN(c2ccc(NC(=O)c3ccc(-c4ccc(Cl)cc4)o3)cc2)CC1,9.12 µM
18,COC(=O)c1cnn(-c2nc(-c3ccccc3)cs2)c1N,20.4 µM
19,COC(=O)C1=C(C)N(Cc2cccc(C(F)(F)F)c2)C(=NCc2ccccc2)NC1c1ccc(Cl)cc1 (stereo not drawn),10.4 µM
20,O=C(NC(=S)Nc1ccc(NC(=O)c2cccs2)cc1)c1cc2ccccc2o1,10.9 µM
21,Cc1ccccc1S(=O)(=O)N1CC(=O)N2[C@@H](CO)[C@H](c3ccc(C#CCC4CCCC4)cc3)[C@@H]2C1,22.6 µM
22,COc1ccc(C(=O)c2sc(Nc3ccccc3)nc2N)cc1OC,26.5 µM

row,SMILES,AC40
1,CCCCc1c(-c2ccccc2OC)ncn1Cc1ccccc1C,11.3 µM
2,N#Cc1cccc(-c2ccc([C@@H]3[C@@H]4CN(S(=O)(=O)c5ccc(-c6ccccc6)cc5)C[C@H]3N4)cc2)c1,1.89 µM
3,NC(N)=N/N=C/c1ccc(N(c2ccccc2)c2ccccc2)cc1,4.06 µM
4,CCCCCc1c(Cc2ccccc2)ncn1CCc1ccccc1OC,8.28 µM
5,O=c1c2ccc(F)cc2sn1-c1ccccc1,1.45 µM
6,COc1ccccc1CCn1cnc(-c2ccccc2OC)c1CC(C)C,11.4 µM
7,Cc1nc(NC(=O)c2cccc(-c3cc4ccccc4oc3=O)c2)ccc1Br,7.19 µM
8,COCCn1c(=NC(=O)c2cc(Cl)sc2Cl)sc2cc(S(N)(=O)=O)ccc21,6.07 µM
9,COc1ccc(/C=N/Nc2nc(-c3ccc(Cl)cc3)cc(C(F)(F)F)n2)c(OC)c1,12.2 µM
10,COc1ccc(CC2c3cc(OC)c(OC)cc3CCN2C)cc1O (stereo not drawn),14.7 µM
11,COc1ccc2nc3ccccc3nc2c1NC(=O)c1ccc(Cl)cc1Cl,5.1 µM
12,NS(=O)(=O)c1ccc(N=Cc2c(O)n(C3CCCCC3)c(=O)n(C3CCCCC3)c2=O)cc1,15.1 µM
13,CC(C)(C(=O)N1CCC1(C)C(=O)NS(=O)(=O)c1ccc(Br)cc1)c1ccccc1 (stereo not drawn),10.3 µM
14,C/C(=N\NC(=O)c1ccc(Cl)c(Cl)c1)c1ccc(Br)s1,7.32 µM
15,OC(CNCCc1ccc(C(F)(F)F)cc1)COc1cccc2ccccc12 (stereo not drawn),4.92 µM
16,OC1(C#Cc2c(-c3ccsc3)sc3ccccc23)CCCCC1,13.3 µM
17,Nc1c(C(=O)Nc2ccc3c(c2)OCCO3)nnn1Cc1ccc(Cl)cc1,10.1 µM
18,CCc1nc2ccc(C(=O)NCCCN3CCCC3=O)cn2c1N(CCC(C)C)CCN(C)C,> 35 µM (inactive)
19,COc1cc(CNCCc2ccccc2)cc(Cl)c1OCc1ccccc1,7.96 µM
20,COc1cc2c3nnc(-c4ccccc4)c-3cn(Cc3ccccc3F)c2cc1OC,15.6 µM
21,O=c1[nH]c(/C=C/c2ccc(OC(F)F)cc2)nc2c1cnn2-c1ccccc1,25.6 µM
22,O=C(Nc1ccccc1N1CCOCC1)C1=NN(c2ccccc2)C(=O)CC1,24.3 µM

row,SMILES,AC40
1,COc1cccc(CN2C[C@@H]3N[C@H](C2)C3c2ccc(-c3ccccc3OC)cc2)c1 (stereo partly drawn),7.67 µM
2,Cc1nn(-c2ccccc2)c2nc(C(F)F)cc(C(F)F)c12,30.4 µM
3,CC1(Cc2cc(Cl)ccc2C(F)(F)F)C(=O)Nc2cc(C(F)(F)F)ccc21 (stereo not drawn),12.4 µM
4,COc1ccc(S(=O)(=O)N2CCc3ccccc3C2)cc1OC,> 35 µM (inactive)
5,COc1ccnc(N2CCN(c3cccc(C(F)(F)F)c3)CC2)c1C#N,10.1 µM
6,CS(=O)(=O)c1ccc2nc(NC(=O)Nc3ccc(Cl)c(Cl)c3)sc2c1,1.92 µM
7,CCC(C)c1ccccc1OCCCN(C)Cc1ccccc1 (stereo not drawn),9.93 µM
8,CNc1nc(-c2ccccc2)[n+](-c2ccc(C)cc2)s1,0.858 µM
9,O=C(NCCC1=CCCCC1)C(=O)NCC(c1ccco1)N1CCN(c2ccccc2)CC1 (stereo not drawn),3.54 µM
10,CC1(C(=O)NS(=O)(=O)c2ccccc2Cl)CCN1C(=O)C1(c2ccccc2)CCCC1 (stereo not drawn),23.4 µM
11,CC(C)CSc1nc2c(c(=O)[nH]c(=O)n2C)n1CCc1ccccc1,9.29 µM
12,Cc1ncc(N=Nc2ccc(F)cc2)c(-c2ccc(Cl)cc2)n1,8.66 µM
13,COc1ccc(CNCC(O)COc2ccc(C(C)(C)c3ccccc3)cc2)cc1 (stereo not drawn),6.24 µM
14,Cc1[nH]c2ccc(OC(F)(F)F)cc2c1CCNCc1ccc(Cl)cc1,5.89 µM
15,O=C1CCc2cc(S(=O)(=O)N3CCN(c4ccc(F)cc4)CC3)cc3c2N1CC3,> 35 µM (inactive)
16,CC(C)CC#Cc1ccc2c(c1)O[C@@H](CN(C)Cc1ccccc1)[C@H](C)CN([C@H](C)CO)S2(=O)=O,8.93 µM
17,CN(C)Cc1ccccc1Sc1ccc2c(c1)CCCC2,13 µM
18,CCCCc1c(-c2ccccc2OC)ncn1CCc1ccccc1,9.48 µM
19,C/C=C/c1ccc(C2[C@H]3CNC[C@@H]2N3Cc2cc(-c3ccccc3)on2)cc1 (stereo partly drawn),6.73 µM
20,CC(C)(C)S(=O)N1Cc2cc(C(=O)Nc3ccc(-c4ccccc4)cc3)nc(-c3cccc(-c4cccc(F)c4)c3)c2[C@@H]1CCO (stereo partly drawn),13.4 µM
21,O=C(Nc1nc2ccccc2n1Cc1ccc(Cl)cc1)c1ccco1,6.72 µM
22,CCC(=O)Nc1sc(Cc2ccc3c(c2)OCO3)c(C)c1C(N)=O,7.01 µM

row,SMILES,AC40
1,CC(C)(C)c1cc(NCCCn2ccnc2)n2ncc(-c3ccc(Cl)cc3)c2n1,4.39 µM
2,CN(C)CCNC(=O)c1cc2c(s1)-c1ccc(Cl)cc1SC2,4.87 µM
3,Cc1cc(OCCCN2CCC(C(O)(c3ccccc3)c3ccccc3)CC2)ccc1Br,3.84 µM
4,O=c1c2ccccc2sn1-c1ccccc1F,1.22 µM
5,O=c1c2ccccc2nc(-c2ccco2)n1/N=C/c1ccccc1O,11.7 µM
6,CC(C)(C)OC(=O)N[C@@H](Cc1ccccc1)c1nnc(S(=O)(=O)Cc2ccccc2)o1,2.63 µM
7,CN(C)C=NC(=O)c1ccc(N2CCN(c3ncc(C(F)(F)F)cc3Cl)CC2)cc1,5.6 µM
8,CCCNC(=O)Cn1sc2nc(C)cc(C)c2c1=O,2.31 µM
9,CC(C)CC#Cc1ccc2c(c1)O[C@@H](CN(C)Cc1ccc(F)cc1)[C@H](C)CN([C@H](C)CO)S2(=O)=O,9.44 µM
10,Cc1cc(C)nc(NS(=O)(=O)c2ccc(N/C=C/C(=O)c3ccc(Cl)c(Cl)c3)cc2)n1,4.44 µM
11,O=c1c2cc(F)ccc2sn1-c1ccccc1Cl,1.35 µM
12,CNC[C@H](CC1CCCCC1)NC[C@H](Cc1ccccc1)NCCC12CC3CC(CC(C3)C1)C2,4.43 µM
13,CCCCc1c(-c2cccc(OC)c2)ncn1CCc1ccccc1OC,7.6 µM
14,CN(C)S(=O)(=O)c1cccc(-n2sc3ccccc3c2=O)c1,2.58 µM
15,CCOC(=O)c1c(C)n(-c2ccc(C)cc2)c2ccc(OCC(O)CN3CCN(C)CC3)cc12 (stereo not drawn),17.2 µM
16,O=c1c2ccccc2sn1-c1ccccc1,1.79 µM
17,Cc1ccc(-c2ccc(C3[C@@H]4CN(Cc5cccc(F)c5)C[C@H]3N4)cc2)cc1 (stereo partly drawn),2.14 µM
18,CN(C)CCCNc1cc(C(C)(C)C)nc2c(-c3ccc(Cl)cc3)cnn12,3.6 µM
19,Cc1ccc2oc(-c3ccc(NC(=O)c4ccc5c(c4)OCO5)cc3)nc2c1,1.1 µM
20,CCCCCCN1C[C@H](n2cc(COC(=O)c3ccccc3)nn2)[C@@H](O)C[C@@H]1c1ccc(C)cc1,8.37 µM
